Assay results published in ChEMBL document CHEMBL3763076, “Novel 2-phenyl-5-[(E)-2-(thiophen-2-yl)ethenyl]-1,3,4-oxadiazole and 3-phenyl-5-[(E)-2-(thiophen-2-yl)ethenyl]-1,2,4-oxadiazole derivatives as dengue virus inhibitors targeting NS5 polymerase” (Eur J Med Chem, 2016).

Tests used:
[1] = Inhibition of Dengue virus 2 RdRp using homopolymeric uridine RNA as template assessed as reduction in RNA synthesis incubated for 10 mins by picogreen fluorescent assay; set-up: species or system dengue virus type 2
dengue virus type 2 [2] = assay: Antiviral activity against clinical isolates of Dengue virus 2; type: functional, organism-based
dengue virus type 1 [3] = assay: Antiviral activity against clinical isolates of Dengue virus 1; type: functional, organism-based
dengue virus type 4 [4] = assay: Antiviral activity against clinical isolates of Dengue virus 4; type: functional, organism-based
dengue virus type 3 [5] = assay: Antiviral activity against clinical isolates of Dengue virus 3; type: functional, organism-based
[6] = Cytotoxicity against African green monkey Vero E6 cells assessed as reduction in cell viability treated for 3 days measured on day 4 by cell titer-blue fluorescent assay; type: cell-based; conditions: chlorocebus sabaeus
dengue virus type 1 [7] = assay: Antiviral activity against clinical isolates of Dengue virus 1 Indonesia JKT 1186 TVP 949 infected in African green monkey Vero E6 cells assessed as reduction in viral RNA after 4 days by qRT-PCR method; type: functional, organism-based; conditions: Indonesia JKT 1186 TVP 949, Vero, 96 h
dengue virus type 2 [8] = assay: Antiviral activity against clinical isolates of Dengue virus 2 Martinique H/IMTSSA-MART/98-703 infected in African green monkey Vero E6 cells assessed as reduction in viral RNA after 4 days by qRT-PCR method; type: functional, organism-based; conditions: Martinique H/IMTSSA-MART/98-703, Vero, 96 h
dengue virus type 4 [9] = assay: Antiviral activity against clinical isolates of Dengue virus 4 Martinique 017 infected in African green monkey Vero E6 cells assessed as reduction in viral RNA after 4 days by qRT-PCR method; type: functional, organism-based; conditions: Martinique 017, Vero, 96 h
dengue virus type 3 [10] = assay: Antiviral activity against clinical isolates of Dengue virus 3 Bolivia 4025 infected in African green monkey Vero E6 cells assessed as reduction in viral RNA after 4 days by qRT-PCR method; type: functional, organism-based; conditions: Bolivia 4025, Vero, 96 h
dengue virus type 4 [11] = assay: Antiviral activity against clinical isolates of Dengue virus 4 Dakar HD34460 infected in African green monkey Vero E6 cells assessed as reduction in viral RNA after 4 days by qRT-PCR method; type: functional, organism-based; conditions: 96 h

| Structure (SMILES) | IC50 [1] [nM] | other results |
| --- | --- | --- |
| FC(F)(F)Oc1ccc(-c2noc(/C=C/c3ccc(Br)s3)n2)cc1 | 32600 |  |
| C(=C\c1ccc(-c2ccccc2)s1)/c1nnc(-c2ccccc2)o1 | 18800 |  |
| Fc1ccc(-c2nnc(/C=C/c3ccc(Br)s3)o2)cc1 | 16300 |  |
| Fc1ccc(-c2nnc(/C=C/c3ccc(-c4ccccc4)s3)o2)cc1 | 17400 |  |
| O=C(/C=C/c1ccc(-c2ccccc2)s1)Nc1cccc(Cl)c1 |  | EC50 (dengue virus type 2 [2]): 400 nM; EC50 (dengue virus type 1 [3]): 400 nM; EC50 (dengue virus type 4 [4]): 400 nM; EC50 (dengue virus type 3 [5]): 400 nM |
| O=c1cc(-c2ccc(Oc3c(O)cc4oc(-c5ccc(O)cc5)cc(=O)c4c3O)cc2)oc2cc(O)cc(O)c12 [HINOKIFLAVONE] | 450 |  |
| COc1ccc(-c2nnc(/C=C/c3ccc(-c4ccccc4)s3)o2)cc1 | 22000 |  |
| O=C(/C=C/c1ccc([N+](=O)[O-])s1)Nc1ccc([N+](=O)[O-])cc1O | 1300 |  |
| FC(F)(F)c1ccc(-c2noc(/C=C/c3ccc(Br)s3)n2)cc1 | 21000 |  |
| CN(C)c1ccc(-c2nnc(/C=C/c3ccc(-c4ccccc4)s3)o2)cc1 | 41900 |  |
| Fc1cccc(-c2nnc(/C=C/c3ccc(Br)s3)o2)c1 | 16300 |  |
| Brc1cccc(-c2nnc(/C=C/c3ccc(-c4ccccc4)s3)o2)c1 | 53900 |  |
| CN(C)c1ccc(-c2nnc(/C=C/c3ccc(Br)s3)o2)cc1 | 20000 |  |
| Brc1ccc(/C=C/c2nnc(-c3ccccc3)o2)s1 | 16100 |  |
| O=C(/C=C/c1ccc(Br)s1)Nc1ccc(Cl)c(Cl)c1 |  | EC50 (dengue virus type 2 [2]): 40 nM; EC50 (dengue virus type 1 [3]): 40 nM; EC50 (dengue virus type 4 [4]): 40 nM; EC50 (dengue virus type 3 [5]): 40 nM |
| C#C[C@@]1(O)[C@H](O)[C@@H](CO)O[C@H]1n1ccc2c(N)ncnc21 |  | CC50 at 72 h [6]: > 100000 nM; EC50 (dengue virus type 1 [7]): 860 nM; EC50 (dengue virus type 2 [8]): 820 nM; EC50 (dengue virus type 4 [9]): 30 nM; EC50 (dengue virus type 3 [10]): 120 nM; EC50 (dengue virus type 4 [11]): 80 nM |
| Clc1ccc(-c2nnc(/C=C/c3ccc(-c4ccccc4)s3)o2)cc1Cl | 24300 |  |
